Data: patent publication US6294521A, “Phosphosugars and phosphosugar-containing compounds having anti-inflammatory activity” (Australian National University, priority 1996, dated 2001)

Key:
[1] = system: mannose-6-phosphate receptor (insulin-like growth factor II or IGF-II receptor); assay: Competitive binding assay: uptake of fluorescein-labelled polysaccharide (PPME) by U937 monocytes; format: cell-based, human (U937 cell line); conditions: uptake of fluoresceinated-PPME (100 μg/ml), U937 cells, 60 minutes at 37° C.; FIG. 1
Description: The novel mannoside 6-phosphates have similar affinities for the mannose-6-phosphate receptor (insulin-like growth factor II or IGF-II receptor) as the natural ligand, mannose-6-phosphate. In order to assess the binding of the novel mannoside 6-phosphates to the M6P receptor a competitive binding assay was used. In this assay a fluorescein-labelled, polysaccharide (PPME) which contains abundant mannose-6-phosphate groups, was used to detect uptake through the M6P receptor on human monocytes (U937 cell line). PPME was isolated and purified by the method of Bretthauer et al., (23) from the exopolysaccharide secreted by the yeast Pichia holstii. […]
The human monocyte cell line U937, which has a relatively high content of M6P receptors on its cell Surface (25), was obtained from the American Type Culture Collection (Rockville, Md.) and was maintained in RPMI 1640 medium (Gibco, Gaitersburg, Md.) supplemented with 2 mg/ml sodium bicarbonate, 0.2 mM glutamine, 30 μg/ml penicillin, 50 μg/ml streptamycin sulfate and 50 μg/ml neomycin sulfate and 10% foetal calf serum (FCS; Commonwealth Sarum Laboratories, Melbourne, Anstalia) at 37° C. […] Following incubations, the cells were washed twice with 10% FCS/RPMI and once with PBS and then fixed with 1% paraformaldehyde in PBS and analysed for fluorescence by flow cytometry. […]

[2] = Inhibition of passively-transferred EAE in rats, parenteral treatment; format: in vivo, Lewis rats; conditions: for inhibition of development of disease (EAE), in words: 8 hourly subcutaneous doses for seven days, 220 mg/kg/day (mannose-6-phosphate), 200 mg/kg/day (others); for % with clinical signs of EAE: n=5; for % with clinical signs of EAE / Mean Maximum clinical score: 220 mg/kg/day (mannose 6-P) or 200 mg/kg/day (others); for Mean Maximum clinical score: controls 2.8 (saline), 3.3 (PEG 200)
Experimental: International Patent PCT/AU89/00350 identified several simple phosphosugars which had potent anti-inflammatory activity against cell-mediated inflammatory diseases such as EAE. The novel mannose 6-phosphate derivatives of the present invention have improved pharmacodynamic and pharmacokinetic properties. Thus, some of these agents are effective against EAE when they are injected either subcutaneously or intraperitoneally in rats, whereas the parent substance, mannose-6-phosphate is ineffective when administered in this manner.
In this Example, some typical novel mannoside 6-phosphates of the present invention were compared with mannose-6-phosphate for their ability to inhibit the development of […] in rats. In this experiment, according to the method of Panitch and McFarlin (18), donor Lewis rats were immunised with 50 μg myelin basic protein in complete Freund's adjuvant and 10-12 days later the spleens from these rats were removed and made into a single cell suspension. Thus, these cells, 2×10^6 ml^-1, were cultured in RPMI medium with 5% fetal calf serum, 5×10^-5 M 2-mercaptoethanol, 2 mM L-glutamine plus 30 μg/ml penicillin, 50 μg/ml streptamycin sulfate. Con A was added at 2 μg ml^-1 and cultures were incubated at 37° C. in a humidified atmosphere of 5% CO2, 7% O2 and the balance N2. Cells were harvested after 72 hours, washed once wit Hanks balanced salt solution, and 70×10^6 viable cells were then transferred to naive Lewis rat recipients via a lateral tail vein in order to induce EAE.

[3] = Contact sensitivity to picryl chloride, ear swelling; format: in vivo, CBA female mice; conditions: n=5; for inhibition at 330 mg/kg/day: Mus musculus, sc, Table 3, 6 injections s.c.; for % swelling: Table 3, 330 mg/kg/day, 6 injections s.c., control = 100
Description: Contact sensitivity is a type of delayed hypersensitivity which ours following exposure to sensitising agents including low molecular weight reactive chemical entities such as dinitro chlorobenzene (DNCB) and picryl chloride (19,21) as well as the sensitising agents found in poison ivy and poison oak (19). In sensitised individuals, in those having previously been exposed to the sensitising agent, inflammatory leucocytes migrate from the blood stream into the area immediately beneath the affected tissue producing induration which is a cardinal characteristic of the delayed-type hypersensitivity reaction (21). Thus, contact sensitivity is a well recognised cell-mediated inflammatory response. In the experiment outlined below the novel mannoside 6-phosphates were compared with mannose-6-phosphate for their ability to inhibit contact sensitivity induced by picryl chloride.
In this experiment twenty CBA female mice were sensitised to picqyl chloride after the method of Enander et al., (22) by applying 200 μl of picryl chloride solution (0.5% in 95% ethanol) to an area (approximately 2 cm^2) of their shaved abdomens. Seven days following sensitisation these animals were divided into four groups of five mice which bad been treated with either mannose-6-phosphate (55 mg/kg), methyl mannoside 6-phosphate (330 mg/kg) or decyl mannoside 6-phosphate (55 mg/kg) or saline (control) 30 minutes before they were challenged by applying 100 μl of picryl chloride solution (1% in 95% ethanol) to both sides of their left ears. Their right ears (control) were treated with 100 μl of 95% ethanol. Three and one half hours following challenge a second injection of drug or saline was given and this was repeated four times at 4 hour intervals. Four hours following the last injection the mice were anaesthetised (ether) and the contact sensitivity determined by comparing the thickness of the picryl chloride treated ears with those of the control ears. As shown in Table 3 the novel mannoside phosphates inhibited accumulation of inflammatory cells in challenged ears more effectively than mannose-6-phosphate.

[4] = Delayed-type hypersensitivity (DTH) footpad swelling, sheep red blood cell antigen; format: in vivo, CBA mice; conditions: Table 2, q.i.d. s.c., n=5, mean, 220 mg/kg/day (mannose 6-phosphate) or 200 mg/kg/day (others); for inhibition at 220 mg/kg: Mus musculus, Erythrocyte; for % swelling: control = 100
[5] = experimental animals; EAE, adjuvant-induced arthritis, DTH; WO 90/01938; cited from earlier work
[6] = Table 1, t.i.d. s.c., seven days

Row | SMILES | inhibition of binding of the natural ligand, in words [1] | inhibition of development of disease (EAE), in words [2] | % with clinical signs of EAE [2, 6] [%] | Mean Maximum clinical score [2, 6] | inhibition at 330 mg/kg/day [3] [%] | % swelling [3] [%] | inhibition at 220 mg/kg [4] [%] | % swelling [4] [%] | anti-inflammatory activity against cell-mediated inflammatory diseases, in words [5] | Mean Duration ([2]; Table 1, t.i.d. s.c., seven days, 220 mg/kg/day, saline control 4.1) [days] | Mean day of onset ([2]; Table 1, t.i.d. s.c., seven days, 220 mg/kg/day, saline control 5.2) [days] | effectiveness against EAE, in words ([2]; injected either subcutaneously or intraperitoneally in rats)
1 | O=P(O)(O)OC[C@H]1OC(OCCCCCCOC2O[C@H](COP(=O)(O)O)[C@@H](O)[C@H](O)[C@@H]2O)[C@@H](O)[C@@H](O)[C@@H]1O (stereo partly drawn) [1,6-hexamethyene di(D-mannoside 6-phosphate)] | effective inhibitor of binding |  |  |  |  |  |  |  |  |  |  | 
2 | O=P(O)(O)OC[C@H]1OC(OCCCCCCCCCCCCCCCCOC2O[C@H](COP(=O)(O)O)[C@@H](O)[C@H](O)[C@@H]2O)[C@@H](O)[C@@H](O)[C@@H]1O (stereo partly drawn) [1,16-hexadecamethylene di(D-mannoside 6-phosphate)] |  | completely inhibited the development of disease | 0 | 0 |  |  |  |  |  |  |  | 
3 | CCCCCCCCCCOC1O[C@H](COP(=O)(O)O)[C@@H](O)[C@H](O)[C@@H]1O (stereo partly drawn) [decyl mannoside 6-P, Decyl D-mannoside 6-phosphate] |  | completely inhibited the development of disease | 0 | 0 | 77 | 23 | 70 | 30 |  |  |  | 
4 | CCCCCCCCCCCCCCCCOC1O[C@H](COP(=O)(O)O)[C@@H](O)[C@H](O)[C@@H]1O (stereo partly drawn) [hexadecyl mannoside 6-P, hexadecyl D-mannoside 6-phosphate] |  | completely inhibited the development of disease | 0 | 0 |  |  | 80 | 20 |  |  |  | 
5 | O=P(O)(O)OC[C@H]1OC(O)[C@@H](O)[C@@H](O)[C@@H]1O (stereo partly drawn) [mannose-6-phosphate, D-mannose-6-phosphate, reference compound] |  | ineffective in inhibiting development of disease symptoms | 100 | 2.8 | 17 | 83 | 20 | 80 | shown to have anti-inflammatory activity | 4.0 | 5.2 | ineffective
6 | CO[C@H]1O[C@H](COP(=O)(O)O)[C@@H](O)[C@H](O)[C@@H]1O [methyl mannoside 6-P, Methyl α-D-mannoside 6-phosphate] |  |  |  |  | 50 | 50 |  |  |  |  |  | 
